Laboratory results from publication PMC12607858, “GNAT family Pat2 is required for long-term survival on glycerol and catalyzes lysine acetylation of glycerol kinase in hypersaline-adapted archaea” (mBio, 2025).

What was measured:
HvPat2 (HvPat2-SII) [1] = target: T1, HvPat2 (HvPat2-SII) (Haloferax volcanii, UniProt D4GSS9, N147A); experiment: anti-acetyllysine immunoblot of in vitro acetylation of His-HvGlpK; type: biochemical; conditions: acetyl donor 0.2 mM; 6 uM enzyme; co-substrate HvGlpK 2 uM; 50 mM HEPES pH 7.5, 2 M NaCl, 1 mM DTT, 37 C, 3 h
T1 construct: gene pat2; full-length single GNAT domain, C-terminal StrepII tag kept; expressed in and purified from H. volcanii H26 delta-pat2; 196 residues with tag, 21,636 Da, monomer

HvPat2 (HvPat2-SII) [2] = target: T2, HvPat2 (HvPat2-SII) (Haloferax volcanii, UniProt D4GSS9); experiment: as above; type: biochemical; conditions: acetyl donor 0.2 mM; 6 uM enzyme; co-substrate HvGlpK 2 uM; 50 mM HEPES pH 7.5, 2 M NaCl, 1 mM DTT, 37 C, 3 h
T2 construct: gene pat2; full-length single GNAT domain, C-terminal StrepII tag kept; expressed in and purified from H. volcanii H26 delta-pat2; 196 residues with tag, 21,636 Da, monomer
T2 sequence (D4GSS9 entry or part of it): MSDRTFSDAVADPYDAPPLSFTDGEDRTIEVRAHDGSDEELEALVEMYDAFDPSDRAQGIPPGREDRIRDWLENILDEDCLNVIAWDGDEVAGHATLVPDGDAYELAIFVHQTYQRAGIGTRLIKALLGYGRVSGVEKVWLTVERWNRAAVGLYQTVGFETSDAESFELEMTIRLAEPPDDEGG

T1 sequence (D4GSS9 entry or part of it N147A): as the sequence (D4GSS9 entry or part of it) above, with N147A counted along it

Compound: CC(=O)SCCNC(=O)CCNC(=O)[C@H](O)C(C)(C)COP(=O)(O)OP(=O)(O)OC[C@H]1O[C@@H](n2cnc3c(N)ncnc32)[C@H](O)[C@@H]1OP(=O)(O)O [acetyl-CoA]
- anti-acetyllysine immunoblot of in vitro acetylation of His-HvGlpK (HvPat2 (HvPat2-SII) [1]): The V110A variant showed minimal activity, while N147A exhibited reduced activity
- anti-acetyllysine immunoblot of in vitro acetylation of His-HvGlpK (HvPat2 (HvPat2-SII) [2]): when His-HvGlpKEc was incubated with both HvPat2 and acetyl-CoA, a strong signal for lysine acetylation
